# Values joined by “and” are separate entries in the source; they are usually repeats but may differ in a detail not shown here. Equal entries are not always repeated.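 The compound was tested at five concentrations on cells cultured in 96-well plates, with a 48-hour exposure period. Abbreviation: GI50, concentration required for 50% inhibition of growth. TGI: total growth inhibition.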
# What was measured:
# Assay in all cases: NCI anticancer screen, dose series, 48 h
# SW-620 colon = test system: SW-620 colon
# DU-145 prostate = test system: DU-145 prostate
# M14 melanoma = test system: M14 melanoma
# HOP-92 NSCLC = test system: HOP-92 NSCLC
# HOP-62 NSCLC = test system: HOP-62 NSCLC
# 786-0 renal = test system: 786-0 renal
# EKVX NSCLC = test system: EKVX NSCLC
# HCT-15 colon = test system: HCT-15 colon
# HCT-116 colon = test system: HCT-116 colon
# SNB-19 CNS = test system: SNB-19 CNS
SMILES,GI50 (SW-620 colon),TGI (SW-620 colon),GI50 (DU-145 prostate),TGI (DU-145 prostate),GI50 (M14 melanoma),TGI (M14 melanoma),GI50 (HOP-92 NSCLC),TGI (HOP-92 NSCLC),GI50 (HOP-62 NSCLC),TGI (HOP-62 NSCLC),GI50 (786-0 renal),TGI (786-0 renal),GI50 (EKVX NSCLC),TGI (EKVX NSCLC),GI50 (HCT-15 colon),TGI (HCT-15 colon),GI50 (HCT-116 colon),TGI (HCT-116 colon),GI50 (SNB-19 CNS) [µM],TGI (SNB-19 CNS)
COC(=O)Nc1nc2ccc(C(=O)c3ccc(F)cc3)cc2[nH]1,0.0922 µM,> 100 µM,0.298 µM,0.858 µM,0.173 µM,> 100 µM,4.81 µM,50.3 µM,0.682 µM,29.1 µM,0.578 µM,7.83 µM,0.438 µM,> 100 µM,0.0909 µM,> 100 µM,0.146 µM,> 100 µM,0.322,15.4 µM
C=C(Br)COc1ccc2c(C)cc(=O)oc2c1,,> 100 µM,,> 100 µM,,> 100 µM,,> 100 µM,,> 100 µM,,> 100 µM,,> 100 µM,,> 100 µM,,> 100 µM,,> 100 µM
CCCCCCCCCCCCCCCCCC[S+](C)CC (stereo not drawn),1.46 µM,2.89 µM,1.41 µM,2.75 µM,1.33 µM,2.75 µM,1.38 µM,4.5 µM,,,1.25 µM,2.66 µM,1.95 µM,4.31 µM,2.84 µM,16.9 µM,,,,
COc1ccc(/C=C/C(=O)/C=C(O)/C=C/c2ccc(OC)c(OC)c2)cc1OC,1.85 µM,> 100 µM,3.72 µM,> 100 µM,5.88 µM,27.7 µM,14.1 µM,98.4 µM,9.23 µM,49.2 µM,3.03 µM,25.7 µM,4.13 µM,> 100 µM,3.76 µM,> 100 µM,1.83 µM,5.96 µM,28,> 100 µM
CC[C@@]1(O)C(=O)OCc2c1cc1n(c2=O)Cc2c-1nc1cc(F)c(C)c3c1c2[C@@H](NC(=O)CO)CC3,< 0.01 µM,> 44.2 µM,< 0.01 µM,> 100 µM,< 0.01 µM,0.0957 µM,< 0.0125 µM,0.355 µM,< 0.01 µM,2.14 µM,< 0.01 µM,0.439 µM,0.311 µM,> 100 µM,0.247 µM,> 100 µM,< 0.01 µM,> 100 µM,< 0.01,2.53 µM
COc1cc(C)[nH]c(=O)c1CNC(=O)c1c(C)n([C@H](C)C2CCN(CC(F)(F)F)CC2)c2ccccc12,65.3 µM,> 100 µM,57.8 µM,> 100 µM,67.8 µM,> 100 µM,78.5 µM,> 100 µM,> 100 µM,> 100 µM,60.3 µM,> 100 µM,37.5 µM,> 100 µM,44 µM,> 100 µM,59.3 µM,> 100 µM,74.5,> 100 µM
CC(C)C1=CC2=C(C(=O)C1=O)C13CCCC(C)(C)C1CC2OC3=O (stereo not drawn),,35.2 µM,,44.9 µM,,70.6 µM,,37.3 µM,,,,31.9 µM,,31.7 µM,,30.7 µM,,33.2 µM,,> 100 µM
O=C(/C=C/C=C/c1ccc2c(c1)OCO2)N/N=C\c1ccc(O)cc1O,2.83 µM,19.9 µM,3.46 µM,22.3 µM,1.67 µM,11.5 µM,1.98 µM,13.5 µM,1.61 µM,15.7 µM,2.89 µM,11.8 µM,2.05 µM,15.1 µM,0.776 µM,21.4 µM,2.02 µM,14.5 µM,2.79,24.2 µM
COc1ccc(/C=C\c2cc(OC)c(OC)c(OC)c2)c(NS(=O)(=O)c2ccc(F)cc2)c1O,0.0434 µM,> 100 µM,0.039 µM,,0.0326 µM,> 100 µM,0.0723 µM,16.7 µM,0.61 µM,> 100 µM,0.294 µM,47.5 µM,0.466 µM,> 100 µM,0.0752 µM,> 100 µM,0.0428 µM,> 100 µM,0.156,> 100 µM
Nc1c(C(=O)Nc2cccc(C(F)(F)F)c2)sc2nc3c(cc12)CCCCCC3,3.75 µM,21.2 µM,2.65 µM,10.2 µM,3.4 µM,18 µM,1.7 µM,4.86 µM,,,1.6 µM,3.12 µM,,,2.63 µM,15.3 µM,1.69 µM,4.34 µM,3.16,13.1 µM
CO/C(=C1/NC(=O)C(Cc2ccc(O)c(Br)c2)N(C)C(=O)C(C)NC(=O)CCC/C=C(\C)CCC(C)OC1=O)c1ccccc1 (stereo not drawn),0.0146 µM,33.3 µM,< 0.0185 µM,1.73 µM,< 0.0205 µM,,0.0246 µM,0.0612 µM,0.0369 µM,1.18 µM,0.0263 µM,0.0692 µM,0.0425 µM,,0.0632 µM,13.4 µM,< 0.0146 µM,,0.031,1.96 µM
Nc1nc(N)c2c(n1)CCC(S(=O)(=O)c1ccc3ccccc3c1)C2 (stereo not drawn),,> 100 µM,,> 100 µM,,61 µM,,> 72.2 µM,,> 100 µM,,> 100 µM,,> 100 µM,,> 100 µM,,> 100 µM,,> 85.2 µM
COc1cc(N2CCC(N)CC2)ccc1Nc1ncc(Cl)c(-c2c[nH]c3ccccc23)n1,0.183 µM,1.44 µM,0.34 µM,1.88 µM,0.373 µM,1.73 µM,0.035 µM,0.345 µM,0.389 µM,1.99 µM,0.546 µM,1.95 µM,,,0.323 µM,1.96 µM,0.422 µM,1.78 µM,1.38,4.19 µM
COCCn1c2c([n+](Cc3cnccn3)c1C)C(=O)c1ccccc1C2=O,< 0.01 µM,0.0176 µM,< 0.01 µM,0.019 µM,< 0.0126 µM,0.0505 µM,0.0209 µM,0.0549 µM,0.0221 µM,0.119 µM,0.0143 µM,0.0992 µM,< 0.01 µM,0.0162 µM,0.251 µM,> 100 µM,< 0.01 µM,0.0106 µM,< 0.01,0.0153 µM
COc1cc2c(cc1[N+](=O)[O-])C(=O)C(Br)(Br)CCC2,,3.99 µM,,25.8 µM,,5.34 µM,,17 µM,,14.4 µM,,2.73 µM,,6.25 µM,,3.67 µM,,1.87 µM,,19.5 µM
c1ccc(CC(Nc2cccnc2)c2ccccc2)cc1 (stereo not drawn),,> 100 µM,,> 100 µM,,37.9 µM,,35.9 µM,,60.1 µM,,54.4 µM,,98.3 µM,,> 100 µM,,30.1 µM,,> 100 µM
CCC(C)C1NC(=O)C(NC(=O)C(CC(C)C)N(C)C(=O)[C@@H]2CC(O)CN2C(=O)[C@H](C)O)C(C)OC(=O)[C@H](Cc2ccc(OC)cc2)N(C)C(=O)[C@@H]2CCCN2C(=O)[C@H](CC(C)C)NC(=O)C(C)C(=O)[C@H](C(C)C)OC(=O)CC1O (stereo partly drawn),0.0581 µM,2.3 µM and 0.919 µM,0.0884 µM,3.35 µM and 1.85 µM,0.0114 µM,0.762 µM and 0.202 µM,0.0127 µM,1.99 µM and 0.285 µM,0.028 µM,1.4 µM and 0.394 µM,0.0762 µM,1.7 µM and 2.28 µM,,3.32 µM,0.315 µM,12.7 µM,< 0.01 µM,1.01 µM and 1.6 µM,< 0.01,3.39 µM and 0.346 µM
COC(=O)c1cccc(NC(=O)c2ccc(NC3=C(Cl)C(=O)N(Cc4ccccc4)C3=O)cc2)c1,22.3 µM,86.5 µM,7.9 µM,25.2 µM,9.75 µM,23 µM,11 µM,23.4 µM,15.1 µM,35.4 µM,10.5 µM,25.2 µM,23.6 µM,63.6 µM,2.29 µM,17.5 µM,3.49 µM,14.9 µM,28.5,> 100 µM
Cc1c(C(=O)c2ccccc2)[n+](=O)c2cc(F)c(F)cc2n1[O-],1.43 µM,3.14 µM,10.8 µM,24.5 µM,1.81 µM,3.36 µM,3.72 µM,14.7 µM,1.84 µM,3.4 µM,16.6 µM,31.2 µM,10.4 µM,33 µM,0.511 µM,1.64 µM,,,2.3,5.3 µM
NC(=O)c1csc(-c2ccc(CO)o2)n1,,> 100 µM,,> 100 µM,,> 100 µM,,> 100 µM,,,,> 100 µM,,> 100 µM,,> 100 µM,,> 100 µM,,> 100 µM
CN(C)c1ccc(/C=c2/c3cc(O)ccc3n3c2cc(-c2ccccc2)[n+]3C)cc1,1.77 µM,,,6.07 µM,,2.89 µM,,3.9 µM,,4.37 µM,1.31 µM,,,,,> 100 µM,1.1 µM,,0.277,1.7 µM and 1.47 µM
CC#CC#C/C(=C/C=CC(=O)OC)SC,,> 100 µM,,> 100 µM,,> 100 µM,,> 100 µM,,,,> 100 µM,,> 100 µM,,> 100 µM,,> 100 µM,,
COC(=O)c1c2c(c(C)[n+]([O-])c1C)C(=O)C(NCc1ccc(O)cc1)=CC2=O,0.934 µM,2.72 µM,1.75 µM,3.19 µM,1.55 µM,3.12 µM,2.52 µM,5.12 µM,1.96 µM,4.57 µM,2.11 µM,4.87 µM,1.73 µM,3.34 µM,1.43 µM,3.18 µM,0.333 µM,1.24 µM,,
Cn1c(=O)c(Oc2ccc(F)cc2F)cc2cnc(NCC(C)(C)O)nc21,> 25 µM,> 25 µM,> 25 µM,> 25 µM,> 25 µM,> 25 µM,> 25 µM,> 25 µM,> 25 µM,> 25 µM,> 25 µM,> 25 µM,,,> 25 µM,> 25 µM,> 25 µM,> 25 µM,> 25,> 25 µM
CN(C)C1CN(C(=O)c2cc(-c3ccc4ncnc(N5CCc6cc(F)c(Cl)cc65)c4c3)cnc2N)C1,1.48 µM,> 100 µM,0.594 µM,> 100 µM,0.886 µM,> 100 µM,0.331 µM,2.17 µM,0.586 µM,> 28.1 µM,0.436 µM,> 100 µM,,,0.495 µM,> 100 µM,0.728 µM,,1.65,> 100 µM
Cc1[nH]nc(C(=O)N/N=C/c2ccccc2Cl)c1N=NN(C)C,,> 100 µM,,> 23.4 µM,,> 100 µM,,> 100 µM,,,,> 100 µM,,> 100 µM,,> 100 µM,,> 100 µM,,> 100 µM
CN1CCN(CCC=C2c3ccccc3Sc3ccc(S(=O)(=O)N(C)C)cc32)CC1,3.58 µM and 2.85 µM,19.9 µM and 8.62 µM,13 µM and 12.6 µM,> 100 µM and 26.9 µM,1.97 µM and 2.1 µM,3.63 µM and 4.57 µM,0.516 µM and 2.84 µM,4.54 µM and 20.3 µM,5.73 µM and 14.6 µM,23.3 µM and 33 µM,4.12 µM and 6.73 µM,16.2 µM and 20.8 µM,9.15 µM and 13.6 µM,> 100 µM and 63.5 µM,3.3 µM and 2.52 µM,> 100 µM and 10.3 µM,3 µM and 3.35 µM,> 100 µM and 23.8 µM,,
CC(=O)N[C@@H](Cc1ccc(OP(=O)(O)O)cc1)C(=O)N[C@H]1CCC(=O)N2CCC[C@@H](C(=O)NC3CCc4ccccc43)N2C1=O (stereo partly drawn),> 25 µM,> 25 µM,> 25 µM,> 25 µM,> 25 µM,> 25 µM,> 25 µM,> 25 µM,> 25 µM,> 25 µM,> 25 µM,> 25 µM,,,> 25 µM,> 25 µM,> 25 µM,> 25 µM,> 25,> 25 µM
O=C(Nc1cccc(-n2cc(-c3ccncc3)c(-c3ccc(Cl)c(O)c3)n2)c1)Nc1ccc(Cl)c(Cl)c1,1.46 µM,> 32.5 µM,1.5 µM,> 32.5 µM,1.18 µM,6.97 µM,0.679 µM,1.91 µM,2.08 µM,17.6 µM,7.22 µM,> 32.5 µM,,,1.23 µM,29.6 µM,1.19 µM,5.73 µM,1.46,> 32.5 µM
